Tests used:
Type in all cases: in vivo, Swiss-Webster mice
lymphocytes = assay: Lymphocytes by complete blood count on day 8, dosing day 1, 3, 5; conditions: mice, oral gavage, measured on day 8
Experimental: (§1) To examine the effect of compounds and methods of the present invention on increasing white blood cells, the following studies were performed. In one series of experiments, male Swiss-Webster mice were administered various compounds of the present invention via oral gavage using a ball-tipped gavage needle. […] Animals were dosed once daily for 3 or 4 days. Six hours after the final dosing, 200 μl blood samples were collected and total white blood cell, neutrophil, and lymphocyte levels were measured by complete blood count (CBC) using a CellDyn cell analyzer (Abbott Laboratories).
(§2) In another series of experiments, male Swiss-Webster mice were administered various compounds (see Table 7 and Table 8) of the present invention via oral gavage using a ball-tipped gavage needle. […] Total WBC, neutrophil, lymphocyte, and monocyte levels were measured in mice as described above on day 8 following administration of compound on day 1, day 3, and day 5.

[1] = tested on: total white blood cell (WBC); assay: Total white blood cells by complete blood count on day 8, dosing day 1, 3, 5; conditions: mice, oral gavage, measured on day 8
neutrophils [2] = assay: Neutrophils by complete blood count on day 8, dosing day 1, 3, 5; conditions: mice, oral gavage, measured on day 8
neutrophils [3] = assay: as above; conditions: Mus musculus, Neutrophil, 192 h, mice, oral gavage, measured on day 8, read-out: Neutrophils % Increase Over Control; for change in vivo at 200 mg/kg: 200 mg/kg on day 1, day 3 and day 5; for change in vivo at 100 mg/kg: 100 mg/kg on day 1, day 3 and day 5; for change in vivo at 20 mg/kg: 20 mg/kg on day 1, day 3 and day 5
Experimental: as §1, §2

monocytes = assay: Monocytes by complete blood count on day 8, dosing day 1, 3, 5; conditions: mice, oral gavage, measured on day 8; for change in vivo at 200 mg/kg / change in vivo at 60 mg/kg / change in vivo at 100 mg/kg / change in vivo at 20 mg/kg: Mus musculus, Monocyte, 192 h, read-out: Monocytes % Increase Over Control
[4] = tested on: total white blood cell (WBC); assay: Total white blood cells by complete blood count on day 8, dosing day 1, 3, 5; conditions: Mus musculus, 192 h, mice, oral gavage, measured on day 8, read-out: Total WBC % Increase Over Control; for change in vivo at 200 mg/kg: 200 mg/kg on day 1, day 3 and day 5; for change in vivo at 60 mg/kg: 60 mg/kg on day 1, day 3 and day 5; for change in vivo at 100 mg/kg: 100 mg/kg on day 1, day 3 and day 5; for change in vivo at 20 mg/kg: 20 mg/kg on day 1, day 3 and day 5
Experimental: as §1, §2

[5] = Mus musculus, Lymphocyte, 192 h, 200 mg/kg on day 1, day 3 and day 5, read-out: Lymphocytes % Increase Over Control
[6] = 200 mg/kg on day 1, day 3 and day 5
[7] = Mus musculus, Lymphocyte, 192 h, 60 mg/kg on day 1, day 3 and day 5, read-out: Lymphocytes % Increase Over Control
[8] = 60 mg/kg on day 1, day 3 and day 5
[9] = Mus musculus, Lymphocyte, 192 h, 100 mg/kg on day 1, day 3 and day 5, read-out: Lymphocytes % Increase Over Control
[10] = 100 mg/kg on day 1, day 3 and day 5
[11] = Mus musculus, Lymphocyte, 192 h, 20 mg/kg on day 1, day 3 and day 5, read-out: Lymphocytes % Increase Over Control
[12] = 20 mg/kg on day 1, day 3 and day 5
[13] = 6 mg/kg on day 1, day 3 and day 5

Compound | change in vivo at 200 mg/kg (lymphocytes; [5]) | Lymphocytes (lymphocytes; [6]) | Total WBC [1, 6] | Neutrophils (neutrophils [2]; [6]) | change in vivo at 200 mg/kg (neutrophils [3]) | Monocytes (monocytes; [6]) | change in vivo at 200 mg/kg [4] | change in vivo at 100 mg/kg (lymphocytes; [9]) | Lymphocytes (lymphocytes; [10]) | Total WBC [1, 10] | Neutrophils (neutrophils [2]; [10]) | change in vivo at 100 mg/kg (neutrophils [3]) | Monocytes (monocytes; [10]) | change in vivo at 100 mg/kg [4] | other results
N#Cc1nc(C(=O)NCC(=O)O)c(O)c2c(Oc3ccc(Cl)cc3)cccc12 [Compound K, {[5-(4-Chloro-phenoxy)-1-cyano-4-hydroxy-isoquinoline-3-carbonyl]-amino}-acetic acid] | 562% | 31.8 10^3 cells/μl | 33.0 10^3 cells/μl | 0.8 10^3 cells/μl | 34% | 0.4 10^3 cells/μl | 491% |  |  |  |  |  |  |  | change in vivo at 200 mg/kg (monocytes; [6]): 233%
COc1cccc(Cn2ccc3c(O)c(C(=O)NCC(=O)O)nc(C#N)c32)c1 [Compound M, {[7-Cyano-4-hydroxy-1-(3-methoxy-benzyl)-1H-pyrrolo[2,3-c]pyridine-5-carbonyl]-amino}-acetic acid] |  |  |  |  |  |  |  |  |  |  |  |  |  |  | change in vivo at 60 mg/kg (lymphocytes; [7]): 126%; Lymphocytes (lymphocytes; [8]): 7.5 10^3 cells/μl; Total WBC [1, 8]: 9.7 10^3 cells/μl; Neutrophils (neutrophils [2]; [8]): 0.6 10^3 cells/μl; change in vivo at 60 mg/kg (monocytes; [8]): 100%; Monocytes (monocytes; [8]): 0.1 10^3 cells/μl; change in vivo at 60 mg/kg [4]: 149%
O=C(O)CNC(=O)c1c(O)c2cccn2n(Cc2ccc(C(F)(F)F)cc2)c1=O [Compound BG, {[4-Hydroxy-2-oxo-1-(4-trifluoromethyl-benzyl)-1,2-dihydro-pyrrolo[1,2-b]pyridazine-3-carbonyl]-amino}-acetic acid] | 296% | 24.4 10^3 cells/μl | 26.2 10^3 cells/μl | 1.0 10^3 cells/μl | 22% | 0.2 10^3 cells/μl | 252% |  |  |  |  |  |  |  | change in vivo at 200 mg/kg (monocytes; [6]): 60%
Cc1cccc(C)c1Oc1ccc2c(C#N)nc(C(=O)NCC(=O)O)c(O)c2c1 [Compound E, {[1-Cyano-6-(2,6-dimethyl-phenoxy)-4-hydroxy-isoquinoline-3-carbonyl]-amino}-acetic acid] | 245% | 15.8 10^3 cells/μl | 16.6 10^3 cells/μl | 0.8 10^3 cells/μl | 54% | 0.1 10^3 cells/μl | 221% |  |  |  |  |  |  |  | change in vivo at 200 mg/kg (monocytes; [6]): 100%
N#Cc1nc(C(=O)NCC(=O)O)c(O)c2c(Cl)cn(Cc3ccccc3)c12 [Compound F, [(1-Benzyl-3-chloro-7-cyano-4-hydroxy-1H-pyrrolo[2,3-c]pyridine-5-carbonyl)-amino]-acetic acid] |  |  |  |  |  |  |  | 86% | 11.6 10^3 cells/μl | 12.6 10^3 cells/μl | 0.7 10^3 cells/μl | 23% | 0.1 10^3 cells/μl | 81% | 
Cc1cc(Cl)cc(C)c1Oc1ccc2c(C#N)nc(C(=O)NCC(=O)O)c(O)c2c1 [Compound J, {[6-(4-Chloro-2,6-dimethyl-phenoxy)-1-cyano-4-hydroxy-isoquinoline-3-carbonyl]-amino}-acetic acid] |  |  |  |  |  |  |  | 236% | 21.7 10^3 cells/μl | 23.0 10^3 cells/μl | 0.9 10^3 cells/μl | 8% | 0.3 10^3 cells/μl | 208% | change in vivo at 100 mg/kg (monocytes; [10]): 300%
N#Cc1nc(C(=O)NCC(=O)O)c(O)c2ccn(Cc3ccc4ccccc4c3)c12 [Compound R, [(7-Cyano-4-hydroxy-1-naphthalen-2-ylmethyl-1H-pyrrolo[2,3-c]pyridine-5-carbonyl)-amino]-acetic acid] |  |  |  |  |  |  |  | 330% | 21.4 10^3 cells/μl | 23.0 10^3 cells/μl | 1.3 10^3 cells/μl | 71% | 0.3 10^3 cells/μl | 290% | change in vivo at 100 mg/kg (monocytes; [10]): 205%
CC(C)Oc1ccc2c(O)c(C(=O)NCC(=O)O)nc(C#N)c2c1 [Compound H, [(1-Cyano-4-hydroxy-7-isopropoxy-isoquinoline-3-carbonyl)-amino]-acetic acid] | 963% | 37.0 10^3 cells/μl | 37.8 10^3 cells/μl | 0.7 10^3 cells/μl | 6% | 0.1 10^3 cells/μl | 783% | 120% | 7.7 10^3 cells/μl | 9.4 10^3 cells/μl | 1.6 10^3 cells/μl | 135% | 0.1 10^3 cells/μl | 120% | 
N#Cc1nc(C(=O)NCC(=O)O)c(O)c2ccc(Oc3ccccc3)cc12 [Compound Z, [(1-Cyano-4-hydroxy-7-phenoxy-isoquinoline-3-carbonyl)-amino]-acetic acid] |  |  |  |  |  |  |  |  |  |  |  |  |  |  | change in vivo at 60 mg/kg (lymphocytes; [7]): 0%; Lymphocytes (lymphocytes; [8]): 7.1 10^3 cells/μl; Total WBC [1, 8]: 8.3 10^3 cells/μl; Neutrophils (neutrophils [2]; [8]): 1.1 10^3 cells/μl; change in vivo at 60 mg/kg (neutrophils [3]; [8]): 80%; change in vivo at 60 mg/kg (monocytes; [8]): 200%; Monocytes (monocytes; [8]): 0.1 10^3 cells/μl; change in vivo at 60 mg/kg [4]: 6%
CCCCCCn1cc(Cl)c2c(O)c(C(=O)NCC(=O)O)nc(C#N)c21 [Compound AS, [(3-Chloro-7-cyano-1-hexyl-4-hydroxy-1H-pyrrolo[2,3-c]pyridine-5-carbonyl)-amino]-acetic acid] |  |  |  |  |  |  |  |  |  |  |  |  |  |  | change in vivo at 20 mg/kg (lymphocytes; [11]): 24%; Lymphocytes (lymphocytes; [12]): 6.0 10^3 cells/μl; Total WBC [1, 12]: 7.2 10^3 cells/μl; Neutrophils (neutrophils [2]; [12]): 0.9 10^3 cells/μl; change in vivo at 20 mg/kg (neutrophils [3]): 42%; change in vivo at 20 mg/kg (monocytes; [12]): -8%; Monocytes (monocytes; [12]): 0.2 10^3 cells/μl; change in vivo at 20 mg/kg [4]: 24%
O=C(O)CNC(=O)c1c(O)c2ccccc2sc1=O [Compound BF, [(4-Hydroxy-2-oxo-2H-thiochromene-3-carbonyl)-amino]-acetic acid] |  |  |  |  |  |  |  |  |  |  |  |  |  |  | change in vivo at 20 mg/kg (lymphocytes; [11]): 12%; Lymphocytes (lymphocytes; [12]): 7.1 10^3 cells/μl; Total WBC [1, 12]: 8.4 10^3 cells/μl; Neutrophils (neutrophils [2]; [12]): 1.0 10^3 cells/μl; change in vivo at 20 mg/kg (neutrophils [3]): 65%; change in vivo at 20 mg/kg (monocytes; [12]): 64%; Monocytes (monocytes; [12]): 0.2 10^3 cells/μl; change in vivo at 20 mg/kg [4]: 17%
Cc1nc(C(=O)NCC(=O)O)c(O)c2cccc(Oc3ccc(F)cc3)c12 [Compound AE, {[8-(4-Fluoro-phenoxy)-4-hydroxy-1-methyl-isoquinoline-3-carbonyl]-amino}-acetic acid] |  |  |  |  |  |  |  |  |  |  |  |  |  |  | change in vivo at 6 mg/kg (lymphocytes; Mus musculus, Lymphocyte, 192 h, 6 mg/kg on day 1, day 3 and day 5, read-out: Lymphocytes % Increase Over Control): 105%; Lymphocytes (lymphocytes; [13]): 11.0 10^3 cells/μl; change in vivo at 6 mg/kg ([1]; Mus musculus, 192 h, 6 mg/kg on day 1, day 3 and day 5, read-out: Total WBC % Increase Over Control): 109%; Total WBC [1, 13]: 12.3 10^3 cells/μl; change in vivo at 6 mg/kg (neutrophils [2]; Mus musculus, Neutrophil, 192 h, 6 mg/kg on day 1, day 3 and day 5, read-out: Neutrophils % Increase Over Control): 175%; Neutrophils (neutrophils [2]; [13]): 1.1 10^3 cells/μl; Monocytes (monocytes; [13]): 0.1 10^3 cells/μl
